The source of these data is US20080255106A1, “Novel 2-Phenyl-Imidazo[4,5-B]Pyridine Derivatives as Inhibitors of Glycogen Synthase Kinase for the Treatment of Dementia and Neurodegenerative Disorders” (AstraZeneca AB, priority 2005, published 2008).

Structures can show the parent of a compound that is named as a salt.

The target of the assay is T1, GSK3β (Homo sapiens, UniProt P49841).
T1 construct: purchased Dundee University, UK
T1 sequence (P49841 whole entry): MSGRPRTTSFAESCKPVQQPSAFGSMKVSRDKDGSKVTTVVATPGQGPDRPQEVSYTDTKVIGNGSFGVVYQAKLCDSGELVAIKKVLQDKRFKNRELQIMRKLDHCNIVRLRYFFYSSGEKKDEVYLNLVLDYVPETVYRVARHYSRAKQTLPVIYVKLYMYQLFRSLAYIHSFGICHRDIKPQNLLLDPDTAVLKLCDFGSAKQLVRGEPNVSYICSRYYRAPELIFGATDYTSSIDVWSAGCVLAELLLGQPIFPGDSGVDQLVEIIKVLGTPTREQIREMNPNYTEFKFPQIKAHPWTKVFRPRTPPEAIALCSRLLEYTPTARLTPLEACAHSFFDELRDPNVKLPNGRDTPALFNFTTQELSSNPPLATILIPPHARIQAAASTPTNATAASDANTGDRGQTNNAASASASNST
Nature of the assay: GSK3β Scintillation Proximity Assay (ATP competition). Format: biochemical. As to conditions: recombinant human GSK3β, SPA, 1 μM ATP, Km of ATP 20 μM used to calculate Ki. On the procedure:
Determination of ATP Competition in Scintillation Proximity GSK3β Assay.
GSK3β Scintillation Proximity Assay.
The competition experiments were carried out in duplicate with 10 different concentrations of the inhibitors in clear-bottom microtiter plates (Wallac, Finland). A biotinylated peptide substrate, Biotin-Ala-Ala-Glu-Glu-Leu-Asp-Ser-Arg-Ala-Gly-Ser(PO3H2)-Pro-Gln-Leu (AstraZeneca, Lund), was added at a final concentration of 1 μM in an assay buffer containing 1 mU recombinant human GSK30 (Dundee University, UK), 12 mM morpholinepropanesulfonic acid (MOPS), pH 7.0, 0.3 mM EDTA, 0.01% β-mercaptoethanol, 0.004% Brij 35 (a […] detergent), 0.5% glycerol and 0.5 μg BSA/25 μl. The reaction was initiated by the addition of 0.04 μCi [γ-^33P]ATP (Amersham, UK) and unlabelled ATP at a final concentration of 1 μM and assay volume of 25 μl. After incubation for 20 minutes at room temperature, each reaction was terminated by the addition of 25 μl stop solution containing 5 mM EDTA, 50 μM ATP, 0.1% Triton X-100 and 0.25 mg streptavidin coated Scintillation Proximity Assay (SPA) beads (Amersham, UK). After 6 hours the radioactivity was determined in a liquid scintillation counter (1450 MicroBeta Trilux, Wallac). The inhibition curves were analysed by non-linear regression using GraphPad Prism, USA. The Km value of ATP for GSK3, used to calculate the inhibition constants (Ki) of the various compounds, was 20 μM.
Consider `COCCCNC(=O)c1ccnc2[nH]c(-c3cccc(COCC(F)(F)C(F)F)c3)nc12` [Example 4, N-(3-Methoxypropyl)-2-{3-[(2,2,3,3-tetrafluoropropoxy)methyl]phenyl}-3H-imidazo[4,5-b]pyridine-7-carboxamide hydrochloride], for which the Ki (as a rule, the equilibrium dissociation constant of an inhibitor or competing ligand from its target) was 8 nM. As to `COCCCNC(=O)c1ccnc2[nH]c(-c3ccc(C(=O)N4CCN(C)CC4)cc3)nc12` [Example 6, N-(3-Methoxypropyl)-2-{4-[(4-methylpiperazin-1-yl)carbonyl]phenyl}-3H-imidazo[4,5-b]pyridine-7-carboxamide hydrochloride], the inhibition constant Ki was 51 nM. Under `COCCCNC(=O)c1ccnc2[nH]c(-c3ccc(C(=O)N4CCOCC4)cc3)nc12` [Example 7, N-(3-Methoxypropyl)-2-[4-(morpholin-4-ylcarbonyl)phenyl]-3H-imidazo[4,5-b]pyridine-7-carboxamide hydrochloride] stands 36 nM; under `COCCCNC(=O)c1ccnc2[nH]c(-c3ccc(C(F)(F)F)cc3)nc12` [Example 3, N-(3-Methoxypropyl)-2-[4-(trifluoromethyl)phenyl]-3H-imidazo[4,5-b]pyridine-7-carboxamide hydrochloride], 17 nM.
